The molecules below were run against T1, wild-type FLT3 phosphorylation in Baf3 FLT3 cells (Homo sapiens, UniProt P36888) (assay: Cell-Based FLT3 Receptor Elisa). Conditions: 1 hour compound, 100 ng/mL Flt ligand 10 min; uncertainty ±20%.
T1 sequence (P36888 27-993): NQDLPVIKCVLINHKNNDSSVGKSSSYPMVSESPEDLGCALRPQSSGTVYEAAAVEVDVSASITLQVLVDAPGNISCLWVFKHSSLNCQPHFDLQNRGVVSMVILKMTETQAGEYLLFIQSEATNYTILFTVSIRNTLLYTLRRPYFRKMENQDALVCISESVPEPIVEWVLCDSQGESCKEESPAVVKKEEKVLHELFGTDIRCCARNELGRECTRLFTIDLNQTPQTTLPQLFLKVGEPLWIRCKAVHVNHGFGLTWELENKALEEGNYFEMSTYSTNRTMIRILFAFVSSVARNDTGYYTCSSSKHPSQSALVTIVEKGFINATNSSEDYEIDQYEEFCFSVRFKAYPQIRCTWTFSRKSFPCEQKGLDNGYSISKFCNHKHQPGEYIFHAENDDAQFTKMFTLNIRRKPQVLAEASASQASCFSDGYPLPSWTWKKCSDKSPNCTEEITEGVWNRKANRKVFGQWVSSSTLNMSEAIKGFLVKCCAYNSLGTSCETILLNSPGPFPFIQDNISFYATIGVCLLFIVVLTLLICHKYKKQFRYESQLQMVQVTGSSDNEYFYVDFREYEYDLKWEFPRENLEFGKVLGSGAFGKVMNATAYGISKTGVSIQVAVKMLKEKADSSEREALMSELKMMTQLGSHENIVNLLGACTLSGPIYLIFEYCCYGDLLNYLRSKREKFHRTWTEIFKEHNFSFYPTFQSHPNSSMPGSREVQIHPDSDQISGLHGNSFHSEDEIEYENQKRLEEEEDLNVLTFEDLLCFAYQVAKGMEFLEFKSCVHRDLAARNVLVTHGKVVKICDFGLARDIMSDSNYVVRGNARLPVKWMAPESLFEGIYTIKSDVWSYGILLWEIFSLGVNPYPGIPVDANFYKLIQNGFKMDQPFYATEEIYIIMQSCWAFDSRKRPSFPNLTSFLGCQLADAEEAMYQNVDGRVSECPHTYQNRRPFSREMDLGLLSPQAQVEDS
Protocol: Cell-Based FLT3 Receptor Elisa
Specific cellular inhibition of FLT ligand-induced wild-type FLT3 phosphorylation was measured in the following manner: Baf3 FLT3 cells overexpressing the FLT3 receptor were obtained from Dr. Michael Heinrich (Oregon Health and Sciences University). The Baf3 FLT3 cell lines were created by stable transfection of parental Baf3 cells (a murine B cell lymphoma line dependent on the cytokine IL-3 for growth) with wild-type FLT3. Cells were selected for their ability to grow in the absence of IL-3 and in the presence of FLT3 ligand.
Baf3 cells were maintained in RPMI 1640 with 10% FBS, penn/strep and 10 ng/ml FLT ligand at 37° C., 5% CO2. To measure direct inhibition of the wild-type FLT3 receptor activity and phosphorylation a sandwich ELISA method was developed similar to those developed for other RTKs (see Sadick, M D, Sliwkowski, M X, Nuijens, A, Bald, L, Chiang, N, Lofgren, J A, Wong W L T. Analysis of Heregulin-Induced ErbB2 Phosphorylation with a High-Throughput Kinase Receptor Activation Enzyme-Linked Immunsorbent Assay, Analytical Biochemistry. 1996; 235:207-214 and Baumann C A, Zeng L, Donatelli R R, Maroney A C. Development of a quantitative, high-throughput cell-based enzyme-linked immunosorbent assay for detection of colony-stimulating factor-1 receptor tyrosine kinase inhibitors. J Biochem Biophys Methods. 2004; 60:69-79.). 200 μL of Baf3FLT3 cells (1×10^6/mL) were plated in 96 well dishes in RPMI 1640 with 0.5% serum and 0.01 ng/mL IL-3 for 16 hours prior to 1 hour compound or DMSO vehicle incubation. Cells were treated with 100 ng/mL Flt ligand (R&D Systems Cat# 308-FK) for 10 min. at 37° C. Cells were pelleted, washed and lysed in 100 ul lysis buffer (50 mM Hepes, 150 mM NaCl, 10% Glycerol, 1% Triton-X-100, 10 mM NaF, 1 mM EDTA, 1.5 mM MgCl2, 10 mM NaPyrophosphate) supplemented with phosphatase (Sigma Cat# P2850) and protease inhibitors (Sigma Cat #P8340). Lysates were cleared by centrifugation at 1000×g for 5 minutes at 4° C. Cell lysates were transferred to white wall 96 well microtiter (Costar #9018) plates coated with 50 ng/well anti-FLT3 antibody (Santa Cruz Cat# sc-480) and blocked with SeaBlock reagent (Pierce Cat#37527). Lysates were incubated at 4° C. for 2 hours. Plates were washed 3× with 200 ul/well PBS/0.1% Triton-X-100. Plates were then incubated with 1:8000 dilution of HRP-conjugated anti-phosphotyrosine antibody (Clone 4G10, Upstate Biotechnology Cat#16-105) for 1 hour at room temperature. Plates were washed 3× with 200 ul/well PBS/0.1% Triton-X-100. Signal detection with Super Signal Pico reagent (Pierce Cat#37070) was done according to manufacturer's instruction with a Berthold microplate luminometer. All data points are an average of triplicate samples. […] Inhibition and IC50 data analysis was done with GraphPad Prism using a non-linear regression fit with a multiparamater, sigmoidal dose-response (variable slope) equation.

Q: For `CO/N=C/c1c(N)ncnc1N1CCC(OC(=O)Nc2ccc(OC(C)C)cc2)CC1` [Number 1, (4-Isopropoxy-phenyl)-carbamic acid 1-[6-amino-5-(methoxyimino-methyl)-pyrimidin-4-yl]-piperidin-4-yl ester], which IC50 is on record?
A: 0.204 µM

Q: How did the IC50 turn out when `CCO/N=C/c1c(N)ncnc1N1CCC(OC(=O)Nc2ccc(OC(C)C)cc2)CC1` [Number 2, (4-Isopropoxy-phenyl)-carbamic acid 1-[6-amino-5-(ethoxyimino-methyl)-pyrimidin-4-yl]-piperidin-4-yl ester] was run?
A: 0.074 µM

Q: `CC(C)Oc1ccc(NC(=O)OC2CCN(c3ncnc(N)c3/C=N/OCCCN(C)C)CC2)cc1` [Number 4, (4-Isopropoxy-phenyl)-carbamic acid 1-{6-amino-5-[(3-dimethylamino-propoxyimino)-methyl]-pyrimidin-4-yl}-piperidin-4-yl ester] was tested. Which IC50 did it give?
A: 0.345 µM

Q: `CO/N=C/c1c(N)ncnc1N1CCC(OC(=O)Nc2ccc(C(C)C)cc2)CC1` [Number 5, (4-Isopropyl-phenyl)-carbamic acid 1-[6-amino-5-(methoxyimino-methyl)-pyrimidin-4-yl]-piperidin-4-yl ester] was tested. Which IC50 did it give?
A: 0.004 µM

Q: For `CO/N=C/c1c(N)ncnc1N1CCC(CC(=O)Nc2ccc(C(C)C)cc2)C1` (centres unmarked) [Number 6, 2-{1-[6-Amino-5-(methoxyimino-methyl)-pyrimidin-4-yl]-pyrrolidin-3-yl}-N-(4-isopropyl-phenyl)-acetamide], which IC50 is on record?
A: 0.015 µM

Q: `CO/N=C/c1c(N)ncnc1N1CCC(CC(=O)Nc2ccc(C(C)C)cc2)CC1` [Number 7, 2-{1-[6-Amino-5-(methoxyimino-methyl)-pyrimidin-4-yl]-piperidin-4-yl}-N-(4-isopropyl-phenyl)-acetamide] was tested. Which IC50 did it give?
A: 0.169 µM

Q: Which IC50 does the source give for `CO/N=C/c1c(N)ncnc1N1CCC(NC(=O)Nc2ccc(OC(C)C)cc2)C1` (centres unmarked) [Number 8, 1-{1-[6-Amino-5-(methoxyimino-methyl)-pyrimidin-4-yl]-pyrrolidin-3-yl}-3-(4-isopropoxy-phenyl)-urea] here?
A: 0.176 µM

Q: Which IC50 does the source give for `CO/N=C/c1c(N)ncnc1N1CCC(NC(=O)Nc2ccc(N3CCCCC3)cc2)C1` (centres unmarked) [Number 9, 1-{1-[6-Amino-5-(methoxyimino-methyl)-pyrimidin-4-yl]-pyrrolidin-3-yl}-3-(4-piperidin-1-yl-phenyl)-urea] here?
A: 0.127 µM

Q: With `CO/N=C/c1c(N)ncnc1N1CCC(NC(=O)Nc2ccc(N3CCOCC3)cc2)C1` (centres unmarked) [Number 10, 1-{1-[6-Amino-5-(methoxyimino-methyl)-pyrimidin-4-yl]-pyrrolidin-3-yl}-3-(4-morpholin-4-yl-phenyl)-urea] as the molecule, how does the IC50 read?
A: 1.3 µM

Q: With `CO/N=C/c1c(N)ncnc1N1CCC(NC(=O)Nc2ccc(OC3CCC3)nc2)C1` (centres unmarked) [Number 11, 1-{1-[6-Amino-5-(methoxyimino-methyl)-pyrimidin-4-yl]-pyrrolidin-3-yl}-3-(6-cyclobutoxy-pyridin-3-yl)-urea] as the molecule, how does the IC50 read?
A: 0.229 µM

Q: With `CO/N=C/c1c(N)ncnc1N1CCC(NC(=O)Nc2ccc(OC(C)C)cc2)CC1` [Number 12, 1-{1-[6-Amino-5-(methoxyimino-methyl)-pyrimidin-4-yl]-piperidin-4-yl}-3-(4-isopropoxy-phenyl)-urea] as the molecule, how does the IC50 read?
A: 0.217 µM

Q: `CO/N=C/c1c(N)ncnc1N1CCC(NC(=O)Nc2ccc(N3CCCCC3)cc2)CC1` [Number 13, 1-{1-[6-Amino-5-(methoxyimino-methyl)-pyrimidin-4-yl]-piperidin-4-yl}-3-(4-piperidin-1-yl-phenyl)-urea] was tested. Which IC50 did it give?
A: 0.468 µM

Q: `CO/N=C/c1c(N)ncnc1N1CCC(NC(=O)Nc2ccc(N3CCOCC3)cc2)CC1` [Number 14, 1-{1-[6-Amino-5-(methoxyimino-methyl)-pyrimidin-4-yl]-piperidin-4-yl}-3-(4-morpholin-4-yl-phenyl)-urea] was tested. Which IC50 did it give?
A: 0.292 µM

Q: How did the IC50 turn out when `CO/N=C/c1c(N)ncnc1N1CCC(NC(=O)Nc2ccc(OC3CCC3)nc2)CC1` [Number 15, 1-{1-[6-Amino-5-(methoxyimino-methyl)-pyrimidin-4-yl]-piperidin-4-yl}-3-(6-cyclobutoxy-pyridin-3-yl)-urea] was run?
A: 0.195 µM

Q: With `CO/N=C/c1c(N)ncnc1N1CCC(NC(=O)Nc2ccc(C3CCCCC3)cc2)C1` (centres unmarked) [Number 17, 1-{1-[6-Amino-5-(methoxyimino-methyl)-pyrimidin-4-yl]-pyrrolidin-3-yl}-3-(4-cyclohexyl-phenyl)-urea] as the molecule, how does the IC50 read?
A: 0.299 µM

Q: With `CO/N=C/c1c(N)ncnc1N1CCC(NC(=O)Nc2ccc(Cl)cc2)C1` (centres unmarked) [Number 18, 1-{1-[6-Amino-5-(methoxyimino-methyl)-pyrimidin-4-yl]-pyrrolidin-3-yl}-3-(4-chloro-phenyl)-urea] as the molecule, how does the IC50 read?
A: 0.309 µM

Q: How did the IC50 turn out when `CO/N=C/c1c(N)ncnc1N1CCC(NC(=O)Nc2ccc(Oc3ccccc3)cc2)C1` (centres unmarked) [Number 19, 1-{1-[6-Amino-5-(methoxyimino-methyl)-pyrimidin-4-yl]-pyrrolidin-3-yl}-3-(4-phenoxy-phenyl)-urea] was run?
A: 0.134 µM

Q: Which IC50 does the source give for `CO/N=C/c1c(N)ncnc1N1CCC(NC(=O)Nc2ccc(N3CCCC3)cc2)C1` (centres unmarked) [Number 20, 1-{1-[6-Amino-5-(methoxyimino-methyl)-pyrimidin-4-yl]-pyrrolidin-3-yl}-3-(4-pyrrolidin-1-yl-phenyl)-urea] here?
A: 0.299 µM

Q: How did the IC50 turn out when `CO/N=C/c1c(N)ncnc1N1CCC(NC(=O)Nc2ccc(OC3CCCC3)nc2)C1` (centres unmarked) [Number 21, 1-{1-[6-Amino-5-(methoxyimino-methyl)-pyrimidin-4-yl]-pyrrolidin-3-yl}-3-(6-cyclopentyloxy-pyridin-3-yl)-urea] was run?
A: 0.099 µM

Q: For `CO/N=C/c1c(N)ncnc1N1CCC(NC(=O)Nc2ccc(C3CCCCC3)cc2)CC1` [Number 22, 1-{1-[6-Amino-5-(methoxyimino-methyl)-pyrimidin-4-yl]-piperidin-4-yl}-3-(4-cyclohexyl-phenyl)-urea], which IC50 is on record?
A: 0.04 µM

Q: Which IC50 does the source give for `CO/N=C/c1c(N)ncnc1N1CCC(NC(=O)Nc2ccc(OC3CCCC3)nc2)CC1` [Number 23, 1-{1-[6-Amino-5-(methoxyimino-methyl)-pyrimidin-4-yl]-piperidin-4-yl}-3-(6-cyclopentyloxy-pyridin-3-yl)-urea] here?
A: 0.035 µM

Q: For `CO/N=C/c1c(N)ncnc1N1CCC(NC(=O)Nc2ccc(Cl)cc2)CC1` [Number 25, 1-{1-[6-Amino-5-(methoxyimino-methyl)-pyrimidin-4-yl]-piperidin-4-yl}-3-(4-chloro-phenyl)-urea], which IC50 is on record?
A: 0.078 µM

Q: `CO/N=C/c1c(N)ncnc1N1CCC(NC(=O)Nc2ccc(Oc3ccccc3)cc2)CC1` [Number 26, 1-{1-[6-Amino-5-(methoxyimino-methyl)-pyrimidin-4-yl]-piperidin-4-yl}-3-(4-phenoxy-phenyl)-urea] was tested. Which IC50 did it give?
A: 0.175 µM
